Data taken from patent US20240382629A1, “HETEROBIVALENT AND HOMOBIVALENT AGENTS TARGETING FIBROBLAST ACTIVATION PROTEIN ALPHA AND/OR PROSTATE-SPECIFIC MEMBRANE ANTIGEN” (The Johns Hopkins University, priority 2021, published 2024).
Values belong to the compound of their own block, whether it stands above or below them.

System: U87 tumor
Assay: PET imaging and tissue biodistribution in U87 tumor-bearing mice
Format: in vivo, mouse
Parameters: Biodistribution: Saliv. Gland: unit not given here
Procedure: Cell uptake assays, flow cytometry, and IHC were performed as described previously. Banerjee et al., 2019; Nimmagadda et al., 2018. PET imaging and biodistribution Sequential PET imaging and biodistribution studies were conducted to quantify and validate PET imaging data. Briefly, tumor-bearing mice were administrated approximately 7.4 MBq of radiotracer in 150 μL saline via tail-vein injection. They were randomized into the indicated groups of 3-4 mice before radiotracer injection.
In Experiment 1, bilateral xenografts of U87 (right flank) and PSMA+ PC3 PIP (left flank) tumors were established in male NSG mice (n=3), which underwent imaging followed by biodistribution over 24 h. […] A biodistribution study was further conducted with U87 tumors at 2 h post-injection (n=3) to compare the tissue distribution properties of ^64Cu-FP-L1 and ^64Cu-FAPI-04.

[1] = untitled table, radiolabel and time not given
[2] = untitled table, radiolabel and time not given, in %ID/g
[3] = head-to-head, 1 h, dose 20 μCi, n=5/group (FAPI-04 n = 3)
[4] = 2 h + 10 nmol Sri-06-98, dose 200 μCi, n=3, in %ID/g
[5] = 2 h, dose 200 μCi, n=3, in %ID/g
[6] = 4 h, dose 200 μCi, n=3, in %ID/g

Structure (SMILES): N#CC1CCCN1C(=O)CNC(=O)c1ccnc2ccc(OCCCNC(=O)CCc3cn(CC[C@H](NC(=O)c4ccc(F)nc4)C(=O)NCCNC(=O)CN4CCN(CC(=O)O)CCN(CC(=O)O)CCN(CC(=O)O)CC4)nn3)cc12 (stereo partly shown) [SRI-07-56]
Biodistribution: Saliv. Gland [1]: 7.59 ± 3.44
Biodistribution: Bladder [2]: 7.14 ± 3.21
Biodistribution: Blood [2]: 20.47 ± 8.29
Biodistribution: Bone [2]: 4.47 ± 1.71
Biodistribution: Fat [2]: 0.49 ± 0.23
Biodistribution: Heart [2]: 7.16 ± 3.22
Biodistribution: Kidney [2]: 5.16 ± 2.02
Biodistribution: Lacrim Gland [2]: 4.32 ± 1.56
Biodistribution: Liver [2]: 6.87 ± 2.54
Biodistribution: Lung [2]: 10.70 ± 4.41
Biodistribution: Muscle [2]: 2.06 ± 0.95
Biodistribution: Pancreas [2]: 10.62 ± 3.62
Biodistribution: Sm Intest [2]: 9.55 ± 3.91
Biodistribution: Spleen [2]: 4.21 ± 1.74
Biodistribution: Stomach [2]: 3.73 ± 1.63
Biodistribution: U87 [2]: 5.67 ± 2.42

Structure (SMILES): N#C[C@@H]1CCCN1C(=O)CNC(=O)c1ccnc2ccc(OCCCNC(=O)C(CCNC(=O)c3ccc(F)nc3)NC(=O)CN3CCN(CC(=O)O)CCN(CC(=O)O)CCN(CC(=O)O)CC3)cc12 (stereo partly shown) [SRI-08-15]
Biodistribution: Saliv. Gland [1]: 8.95 ± 0.98
Biodistribution: Bladder [2]: 1.67 ± 0.32
Biodistribution: Blood [2]: 3.92 ± 0.39
Biodistribution: Bone [2]: 5.97 ± 1.02
Biodistribution: Fat [2]: 0.92 ± 0.21
Biodistribution: Heart [2]: 1.97 ± 0.34
Biodistribution: Kidney [2]: 2.65 ± 0.27
Biodistribution: Lacrim Gland [2]: 8.01 ± 1.01
Biodistribution: Liver [2]: 2.73 ± 0.64
Biodistribution: Lung [2]: 2.90 ± 0.24
Biodistribution: Muscle [2]: 3.03 ± 0.63
Biodistribution: Pancreas [2]: 7.33 ± 1.73
Biodistribution: Sm Intest [2]: 3.85 ± 0.77
Biodistribution: Spleen [2]: 1.59 ± 0.57
Biodistribution: Stomach [2]: 1.42 ± 0.56
Biodistribution: U87 [2]: 20.41 ± 3.28

Structure (SMILES): N#C[C@@H]1CCCN1C(=O)CNC(=O)c1ccnc2ccc(OCCCNC(=O)CCOCCOCCOCCNC(=O)C(CCNC(=O)c3ccc(F)nc3)NC(=O)CN3CCN(CC(=O)O)CCN(CC(=O)O)CCN(CC(=O)O)CC3)cc12 (stereo partly shown) [SRI-08-27]
Biodistribution: Saliv. Gland [1]: 6.40 ± 1.30
Biodistribution: Bladder [2]: 1.18 ± 0.13
Biodistribution: Blood [2]: 12.65 ± 2.31
Biodistribution: Bone [2]: 2.83 ± 0.36
Biodistribution: Fat [2]: 0.45 ± 0.16
Biodistribution: Heart [2]: 5.39 ± 1.11
Biodistribution: Kidney [2]: 3.98 ± 0.66
Biodistribution: Lacrim Gland [2]: 4.62 ± 1.02
Biodistribution: Liver [2]: 5.15 ± 0.75
Biodistribution: Lung [2]: 7.76 ± 1.31
Biodistribution: Muscle [2]: 1.55 ± 0.43
Biodistribution: Pancreas [2]: 7.20 ± 3.00
Biodistribution: Sm Intest [2]: 6.28 ± 2.63
Biodistribution: Spleen [2]: 2.59 ± 0.49
Biodistribution: Stomach [2]: 1.83 ± 0.66
Biodistribution: U87 [2]: 6.56 ± 1.76

Structure (SMILES): N#C[C@@H]1CCCN1C(=O)CNC(=O)c1ccnc2ccc(OCCCNC(=O)CCc3cn(CCCC[C@H](NC(=O)CN4CCN(CC(=O)O)CCN(CC(=O)O)CC4)C(=O)NCCCOc4ccc5nccc(C(=O)NCC(=O)N6CCC[C@H]6C#N)c5c4)nn3)cc12 [^64Cu-Sri-06-98, metal not drawn]
Biodistribution: Bladder [4]: 5.61 ± 7.96
Biodistribution: Blood [4]: 0.27 ± 0.08
Biodistribution: Bone [4]: 0.59 ± 0.65
Biodistribution: Fat [4]: 0.07 ± 0.02
Biodistribution: Heart [4]: 0.17 ± 0.01
Biodistribution: Kidney [4]: 1.57 ± 0.00
Biodistribution: Lacrimal gland [4]: 0.16 ± 0.02
Biodistribution: Liver [4]: 0.68 ± 0.16
Biodistribution: Lung [4]: 0.49 ± 0.01
Biodistribution: Muscle [4]: 0.09 ± 0.02
Biodistribution: Pancreas [4]: 0.21 ± 0.04
Biodistribution: Salivary Glands [4]: 0.34 ± 0.02
Biodistribution: Small Intestine [4]: 0.54 ± 0.08
Biodistribution: Spleen [4]: 0.25 ± 0.01
Biodistribution: Stomach [4]: 0.31 ± 0.02
Biodistribution: U87 [4]: 2.70 ± 1.00
Biodistribution: Bladder [5]: 1.63 ± 0.23
Biodistribution: Blood [5]: 3.49 ± 0.18
Biodistribution: Bone [5]: 2.91 ± 0.36
Biodistribution: Fat [5]: 0.47 ± 0.02
Biodistribution: Heart [5]: 3.70 ± 0.22
Biodistribution: Kidney [5]: 2.00 ± 0.52
Biodistribution: Lacrimal gland [5]: 5.07 ± 2.20
Biodistribution: Liver [5]: 2.80 ± 0.31
Biodistribution: Lung [5]: 2.62 ± 0.11
Biodistribution: Muscle [5]: 2.46 ± 0.20
Biodistribution: Pancreas [5]: 4.59 ± 2.38
Biodistribution: Salivary Glands [5]: 8.88 ± 1.37
Biodistribution: Small Intestine [5]: 2.97 ± 0.33
Biodistribution: Spleen [5]: 1.51 ± 0.14
Biodistribution: Stomach [5]: 2.09 ± 1.00
Biodistribution: U87 [5]: 7.64 ± 2.12
Biodistribution: Bladder [6]: 5.56 ± 1.53
Biodistribution: Blood [6]: 2.54 ± 0.37
Biodistribution: Bone [6]: 2.69 ± 0.14
Biodistribution: Fat [6]: 0.50 ± 0.12
Biodistribution: Heart [6]: 2.40 ± 0.12
Biodistribution: Kidney [6]: 1.67 ± 0.03
Biodistribution: Lacrimal gland [6]: 4.54 ± 0.44
Biodistribution: Liver [6]: 2.68 ± 0.08
Biodistribution: Lung [6]: 2.04 ± 0.10
Biodistribution: Muscle [6]: 2.13 ± 0.14
Biodistribution: Pancreas [6]: 4.54 ± 0.62
Biodistribution: Salivary Glands [6]: 5.92 ± 0.57
Biodistribution: Small Intestine [6]: 2.69 ± 0.42
Biodistribution: Spleen [6]: 1.14 ± 0.16
Biodistribution: Stomach [6]: 1.60 ± 0.36
Biodistribution: U87 [6]: 11.15 ± 1.49

The remaining lines, values ahead:

Biodistribution: Saliv. Gland [1]: 7.49 ± 1.17
Biodistribution: Bladder [2]: 1.59 ± 0.32
Biodistribution: Blood [2]: 15.40 ± 1.08
Biodistribution: Bone [2]: 3.75 ± 0.43
Biodistribution: Fat [2]: 0.56 ± 0.20
Biodistribution: Heart [2]: 7.04 ± 0.93
Biodistribution: Kidney [2]: 5.47 ± 0.73
Biodistribution: Lacrim Gland [2]: 5.27 ± 1.52
Biodistribution: Liver [2]: 6.13 ± 0.67
Biodistribution: Lung [2]: 9.40 ± 1.61
Biodistribution: Muscle [2]: 1.94 ± 0.74
Biodistribution: Pancreas [2]: 10.46 ± 2.88
Biodistribution: Sm Intest [2]: 8.20 ± 2.20
Biodistribution: Spleen [2]: 3.08 ± 0.27
Biodistribution: Stomach [2]: 2.17 ± 0.30
Biodistribution: U87 [2]: 7.84 ± 1.95
Structure (SMILES): N#CC1CCCN1C(=O)CNC(=O)c1ccnc2ccc(OCCCNC(=O)CCc3cn(CCCC[C@H](NC(=O)c4ccc(F)nc4)C(=O)NCCNC(=O)CN4CCN(CC(=O)O)CCN(CC(=O)O)CCN(CC(=O)O)CC4)nn3)cc12 (stereo partly shown) [SRI-08-35]

Biodistribution: Saliv. Gland [1]: 11.70 ± 1.32
Biodistribution: Bladder [2]: 4.28 ± 4.14
Biodistribution: Blood [2]: 4.59 ± 0.50
Biodistribution: Bone [2]: 6.37 ± 0.98
Biodistribution: Fat [2]: 1.04 ± 0.55
Biodistribution: Heart [2]: 2.24 ± 1.02
Biodistribution: Kidney [2]: 2.82 ± 0.06
Biodistribution: Lacrim Gland [2]: 9.11 ± 2.71
Biodistribution: Liver [2]: 2.02 ± 0.13
Biodistribution: Lung [2]: 2.96 ± 0.38
Biodistribution: Muscle [2]: 2.74 ± 0.18
Biodistribution: Pancreas [2]: 6.76 ± 1.47
Biodistribution: Sm Intest [2]: 3.36 ± 0.76
Biodistribution: Spleen [2]: 1.45 ± 0.17
Biodistribution: Stomach [2]: 1.85 ± 0.19
Biodistribution: U87 [2]: 20.43 ± 1.73
Structure (SMILES): N#C[C@@H]1CCCN1C(=O)CNC(=O)c1ccnc2ccc(OCCCN3CC4CN(C(=O)C(CCNC(=O)c5ccc(F)nc5)NC(=O)CN5CCN(CC(=O)O)CCN(CC(=O)O)CCN(CC(=O)O)CC5)CC4C3)cc12 (stereo partly shown) [SRI-08-37]

Biodistribution: Bladder [3]: 3.51 ± 0.30 % ID/g
Biodistribution: Blood [3]: 2.48 ± 0.87 % ID/g
Biodistribution: Bone [3]: 7.94 ± 0.78 % ID/g
Biodistribution: Fat [3]: 0.48 ± 0.43 % ID/g
Biodistribution: Heart [3]: 1.16 ± 0.28 % ID/g
Biodistribution: Kidney [3]: 3.83 ± 2.31 % ID/g
Biodistribution: Lacrimal gland [3]: 5.17 ± 1.51 % ID/g
Biodistribution: Liver [3]: 1.69 ± 0.83 % ID/g
Biodistribution: Lung [3]: 2.48 ± 0.64 % ID/g
Biodistribution: Muscle [3]: 2.05 ± 0.84 % ID/g
Biodistribution: Pancreas [3]: 2.09 ± 1.12 % ID/g
Biodistribution: Salivary Gland [3]: 4.42 ± 0.55 % ID/g
Biodistribution: Small Intestine [3]: 3.80 ± 2.06 % ID/g
Biodistribution: Spleen [3]: 1.23 ± 0.41 % ID/g
Biodistribution: Stomach [3]: 1.29 ± 0.45 % ID/g
Biodistribution: U87 [3]: 11.42 ± 1.11 % ID/g
Structure (SMILES): N#C[C@@H]1CCCN1C(=O)CNC(=O)c1ccnc2ccc(OCCCNC(=O)CCc3cn(CCCC[C@H](NC(=O)CN4CCN(CC(=O)O)CCN(CC(=O)O)CC4)C(=O)NCCCOc4ccc5nccc(C(=O)NCC(=O)N6CCC[C@H]6C#N)c5c4)nn3)cc12 [^64Cu-FAPI-74, metal not drawn, reference compound]

Biodistribution: Bladder [3]: 5.55 ± 4.26 % ID/g
Biodistribution: Blood [3]: 2.54 ± 0.90 % ID/g
Biodistribution: Bone [3]: 2.84 ± 0.83 % ID/g
Biodistribution: Fat [3]: 0.31 ± 0.08 % ID/g
Biodistribution: Heart [3]: 1.04 ± 0.28 % ID/g
Biodistribution: Kidney [3]: 4.00 ± 1.28 % ID/g
Biodistribution: Lacrimal gland [3]: 3.53 ± 2.93 % ID/g
Biodistribution: Liver [3]: 1.97 ± 0.36 % ID/g
Biodistribution: Lung [3]: 2.02 ± 0.93 % ID/g
Biodistribution: Muscle [3]: 1.65 ± 1.10 % ID/g
Biodistribution: Pancreas [3]: 1.89 ± 0.57 % ID/g
Biodistribution: Salivary Gland [3]: 2.77 ± 0.53 % ID/g
Biodistribution: Small Intestine [3]: 3.15 ± 1.34 % ID/g
Biodistribution: Spleen [3]: 1.13 ± 0.42 % ID/g
Biodistribution: Stomach [3]: 1.26 ± 0.45 % ID/g
Biodistribution: U87 [3]: 6.55 ± 1.41 % ID/g
Structure (SMILES): N#CC1CCCN1C(=O)CNC(=O)c1ccnc2ccc(OCCCN3CC4CN(C(=O)CN5CCN(CC(=O)O)CCN(CC(=O)O)CC5)CC4C3)cc12 (stereo not shown) [^64Cu-Sri-07-86, metal not drawn]
